Measurements published in paper PMC4310556, “Radiosynthesis and in Vivo Evaluation of Two PET Radioligands for Imaging α-Synuclein” (Applied sciences (Basel, Switzerland), 2014).
“And” between values parts separate entries of the source, which are not always exact repeats. Identical values can stand only once.

What was measured:
[1] = Ex vivo biodistribution in rats; parameters: species or system Sprague-Dawley rats; conditions: for Blood-brain barrier penetration: ex vivo rat biodistribution; for Biodistribution, blood / Biodistribution, brain (total brain uptake) / Biodistribution, fat / Biodistribution, heart / Biodistribution, kidney / Biodistribution, liver / Biodistribution, lung / Biodistribution, muscle / Biodistribution, pancreas / Biodistribution, spleen / Biodistribution, bone: male Sprague-Dawley rats, i.v. tail vein, n = 4; for Distribution of radioactivity in brain regions: rat brain regions, Figure 2
Procedure: All animal experiments were conducted in compliance with the Guidelines for the Care and Use of Research Animals under protocols approved by Washington University's Animal Studies Committee. […] Group of rats (n = 4) were used for each time point. […] The whole brain was quickly removed and dissected into segments consisting of brain stem, thalamus, striatum, hippocampus, cortex and cerebellum. The remainder of the brain was also collected to determine total brain uptake. […] Tissues were weighed, and the percent injected dose (%ID)/gram for each tissue was calculated.

[2] = MicroPET brain imaging in cynomolgus macaque; assay type: in vivo
Procedure: Before each scan (n = 2), the animal was fasted for 12 h and then initially anesthetized with ketamine (10 mg/kg) and glycopyrrolate (0.13 mg/kg) intramuscularly. Upon arrival at the scanner, the monkey was intubated, and a percutaneous catheter placed for tracer injection. The head was positioned supine in the adjustable head holder with the brain in the center of the field of view. Anesthesia was maintained at 0.75%–2.0% isoflurane/oxygen and the core temperature maintained at 37 °C. A 10-min transmission scan was performed to confirm positioning; this was followed by a 45-min transmission scan for attenuation correction.

[3] = healthy cynomolgus macaque, microPET

SMILES: [11CH3]Oc1ccc2c(c1)Sc1cc([N+](=O)[O-])ccc1N2 [[^11C]2a]
- Blood-brain barrier penetration [1]: crossed the blood-brain barrier (BBB)
- Biodistribution, blood ([1]; 5 min post injection): 0.506 ± 0.040 %ID/gram
- Biodistribution, brain (total brain uptake) ([1]; 5 min post injection): 0.953 ± 0.115 %ID/gram
- Biodistribution, fat ([1]; 5 min post injection): 0.155 ± 0.023 %ID/gram
- Biodistribution, heart ([1]; 5 min post injection): 0.758 ± 0.052 %ID/gram
- Biodistribution, kidney ([1]; 5 min post injection): 1.362 ± 0.054 %ID/gram
- Biodistribution, liver ([1]; 5 min post injection): 2.198 ± 0.111 %ID/gram
- Biodistribution, lung ([1]; 5 min post injection): 1.149 ± 0.058 %ID/gram
- Biodistribution, muscle ([1]; 5 min post injection): 0.271 ± 0.005 %ID/gram
- Biodistribution, pancreas ([1]; 5 min post injection): 1.007 ± 0.262 %ID/gram
- Biodistribution, spleen ([1]; 5 min post injection): 0.659 ± 0.049 %ID/gram
- Biodistribution, blood ([1]; 30 min post injection): 0.369 ± 0.031 %ID/gram
- Biodistribution, brain (total brain uptake) ([1]; 30 min post injection): 0.287 ± 0.046 %ID/gram
- Biodistribution, fat ([1]; 30 min post injection): 0.241 ± 0.042 %ID/gram
- Biodistribution, heart ([1]; 30 min post injection): 0.377 ± 0.046 %ID/gram
- Biodistribution, kidney ([1]; 30 min post injection): 0.807 ± 0.086 %ID/gram
- Biodistribution, liver ([1]; 30 min post injection): 1.349 ± 0.116 %ID/gram
- Biodistribution, lung ([1]; 30 min post injection): 0.740 ± 0.038 %ID/gram
- Biodistribution, muscle ([1]; 30 min post injection): 0.325 ± 0.030 %ID/gram
- Biodistribution, pancreas ([1]; 30 min post injection): 0.506 ± 0.066 %ID/gram
- Biodistribution, spleen ([1]; 30 min post injection): 0.400 ± 0.052 %ID/gram
- Biodistribution, blood ([1]; 60 min post injection): 0.300 ± 0.015 %ID/gram
- Biodistribution, brain (total brain uptake) ([1]; 60 min post injection): 0.158 ± 0.014 %ID/gram and 0.158 ± 0.013 %ID/gram
- Biodistribution, fat ([1]; 60 min post injection): 0.293 ± 0.076 %ID/gram
- Biodistribution, heart ([1]; 60 min post injection): 0.245 ± 0.010 %ID/gram
- Biodistribution, kidney ([1]; 60 min post injection): 0.559 ± 0.053 %ID/gram
- Biodistribution, liver ([1]; 60 min post injection): 1.116 ± 0.024 %ID/gram
- Biodistribution, lung ([1]; 60 min post injection): 0.485 ± 0.036 %ID/gram
- Biodistribution, muscle ([1]; 60 min post injection): 0.199 ± 0.016 %ID/gram
- Biodistribution, pancreas ([1]; 60 min post injection): 0.522 ± 0.036 %ID/gram
- Biodistribution, spleen ([1]; 60 min post injection): 0.386 ± 0.027 %ID/gram
- Distribution of radioactivity in brain regions [1]: homogeneous distribution in the brain regions
- Time of peak brain uptake post-injection (time-activity curve) ([2]; healthy adult male cynomolgus macaque, i.v., microPET): 3 min
- Blood-brain barrier penetration [2, 3]: able to cross the BBB
- Brain washout kinetics [2, 3]: fast washout kinetics from the brain regions
- Distribution of radioactivity in the brain ([2]; healthy cynomolgus macaque, summed image 0-120 min): homogeneous distribution of radioactivity in the brain

SMILES: O=[N+]([O-])c1ccc2c(c1)Sc1cc(OCC[18F])ccc1N2 [[^18F]2b]
- Blood-brain barrier penetration [1]: crossed the blood-brain barrier (BBB)
- Biodistribution, blood ([1]; 5 min post injection): 0.553 ± 0.047 %ID/gram
- Biodistribution, bone ([1]; 5 min post injection): 0.340 ± 0.027 %ID/gram
- Biodistribution, brain (total brain uptake) ([1]; 5 min post injection): 0.758 ± 0.013 %ID/gram
- Biodistribution, fat ([1]; 5 min post injection): 0.255 ± 0.037 %ID/gram
- Biodistribution, heart ([1]; 5 min post injection): 0.757 ± 0.033 %ID/gram
- Biodistribution, kidney ([1]; 5 min post injection): 1.070 ± 0.058 %ID/gram
- Biodistribution, liver ([1]; 5 min post injection): 1.626 ± 0.221 %ID/gram
- Biodistribution, lung ([1]; 5 min post injection): 0.833 ± 0.053 %ID/gram
- Biodistribution, muscle ([1]; 5 min post injection): 0.430 ± 0.031 %ID/gram
- Biodistribution, pancreas ([1]; 5 min post injection): 1.004 ± 0.147 %ID/gram
- Biodistribution, spleen ([1]; 5 min post injection): 0.672 ± 0.064 %ID/gram
- Biodistribution, blood ([1]; 30 min post injection): 0.589 ± 0.016 %ID/gram
- Biodistribution, bone ([1]; 30 min post injection): 0.309 ± 0.020 %ID/gram
- Biodistribution, brain (total brain uptake) ([1]; 30 min post injection): 0.465 ± 0.018 %ID/gram
- Biodistribution, fat ([1]; 30 min post injection): 0.425 ± 0.023 %ID/gram
- Biodistribution, heart ([1]; 30 min post injection): 0.505 ± 0.015 %ID/gram
- Biodistribution, kidney ([1]; 30 min post injection): 0.988 ± 0.090 %ID/gram
- Biodistribution, liver ([1]; 30 min post injection): 0.847 ± 0.027 %ID/gram
- Biodistribution, lung ([1]; 30 min post injection): 0.561 ± 0.021 %ID/gram
- Biodistribution, muscle ([1]; 30 min post injection): 0.451 ± 0.018 %ID/gram
- Biodistribution, pancreas ([1]; 30 min post injection): 0.546 ± 0.068 %ID/gram
- Biodistribution, spleen ([1]; 30 min post injection): 0.509 ± 0.022 %ID/gram
- Biodistribution, blood ([1]; 60 min post injection): 0.606 ± 0.035 %ID/gram
- Biodistribution, bone ([1]; 60 min post injection): 0.407 ± 0.043 %ID/gram
- Biodistribution, brain (total brain uptake) ([1]; 60 min post injection): 0.410 ± 0.030 %ID/gram
- Biodistribution, fat ([1]; 60 min post injection): 0.371 ± 0.067 %ID/gram
- Biodistribution, heart ([1]; 60 min post injection): 0.466 ± 0.040 %ID/gram
- Biodistribution, kidney ([1]; 60 min post injection): 0.678 ± 0.032 %ID/gram
- Biodistribution, liver ([1]; 60 min post injection): 0.561 ± 0.028 %ID/gram
- Biodistribution, lung ([1]; 60 min post injection): 0.491 ± 0.030 %ID/gram
- Biodistribution, muscle ([1]; 60 min post injection): 0.376 ± 0.019 %ID/gram
- Biodistribution, pancreas ([1]; 60 min post injection): 0.409 ± 0.029 %ID/gram
- Biodistribution, spleen ([1]; 60 min post injection): 0.446 ± 0.038 %ID/gram
- Biodistribution, blood ([1]; 120 min post injection): 0.585 ± 0.046 %ID/gram
- Biodistribution, bone ([1]; 120 min post injection): 0.644 ± 0.071 %ID/gram
- Biodistribution, brain (total brain uptake) ([1]; 120 min post injection): 0.359 ± 0.016 %ID/gram
- Biodistribution, fat ([1]; 120 min post injection): 0.293 ± 0.048 %ID/gram
- Biodistribution, heart ([1]; 120 min post injection): 0.410 ± 0.030 %ID/gram
- Biodistribution, kidney ([1]; 120 min post injection): 0.659 ± 0.027 %ID/gram
- Biodistribution, liver ([1]; 120 min post injection): 0.467 ± 0.023 %ID/gram
- Biodistribution, lung ([1]; 120 min post injection): 0.436 ± 0.018 %ID/gram
- Biodistribution, muscle ([1]; 120 min post injection): 0.315 ± 0.015 %ID/gram
- Biodistribution, pancreas ([1]; 120 min post injection): 0.330 ± 0.021 %ID/gram
- Biodistribution, spleen ([1]; 120 min post injection): 0.398 ± 0.019 %ID/gram
- Distribution of radioactivity in brain regions [1]: homogeneous distribution in the brain regions
- In vivo defluorination (bone uptake) ([1]; rats, bone uptake up to 120 min): no defluorination was observed
